From PubChem BioAssay (NCI)
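At the GI50, growth is halved. TGI denotes the concentration required for complete inhibition of growth.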

What was measured:
Experiment in all cases: NCI tumour cell line growth inhibition, 384-well format
786-0 renal = system: 786-0 renal
A498 renal = system: A498 renal
A549 NSCLC = system: A549 NSCLC
ACHN renal = system: ACHN renal
BT-549 breast = system: BT-549 breast
CAKI-1 renal = system: CAKI-1 renal
CCRF-CEM leukemia = system: CCRF-CEM leukemia
COLO 205 colon = system: COLO 205 colon
DU-145 prostate = system: DU-145 prostate
EKVX NSCLC = system: EKVX NSCLC
HCC-2998 colon = system: HCC-2998 colon
HCT-116 colon = system: HCT-116 colon
HCT-15 colon = system: HCT-15 colon
HL-60(TB) leukemia = system: HL-60(TB) leukemia
HOP-62 NSCLC = system: HOP-62 NSCLC
HOP-92 NSCLC = system: HOP-92 NSCLC
HS 578T breast = system: HS 578T breast
HT29 colon = system: HT29 colon
IGROV1 ovarian = system: IGROV1 ovarian
K-562 leukemia = system: K-562 leukemia
KM12 colon = system: KM12 colon
LOX IMVI melanoma = system: LOX IMVI melanoma
M14 melanoma = system: M14 melanoma
MALME-3M melanoma = system: MALME-3M melanoma
MCF7 breast = system: MCF7 breast
MDA-MB-231 breast = system: MDA-MB-231 breast
MDA-MB-435 melanoma = system: MDA-MB-435 melanoma
MDA-MB-468 breast = system: MDA-MB-468 breast
MOLT-4 leukemia = system: MOLT-4 leukemia
NCI-H226 lung = system: NCI-H226 lung
NCI-H23 lung = system: NCI-H23 lung
NCI-H322M lung = system: NCI-H322M lung
NCI-H460 NSCLC = system: NCI-H460 NSCLC
NCI-H522 lung = system: NCI-H522 lung
NCI/ADR-RES ovarian = system: NCI/ADR-RES ovarian
OVCAR-3 ovarian = system: OVCAR-3 ovarian
OVCAR-4 ovarian = system: OVCAR-4 ovarian
OVCAR-5 ovarian = system: OVCAR-5 ovarian
OVCAR-8 ovarian = system: OVCAR-8 ovarian
PC-3 prostate = system: PC-3 prostate
RPMI-8226 leukemia = system: RPMI-8226 leukemia
RXF 393 renal = system: RXF 393 renal
SF-268 CNS = system: SF-268 CNS
SF-295 CNS = system: SF-295 CNS
SF-539 CNS = system: SF-539 CNS
SK-MEL-5 melanoma = system: SK-MEL-5 melanoma
SK-OV-3 ovarian = system: SK-OV-3 ovarian
SN12C renal = system: SN12C renal
SNB-19 CNS = system: SNB-19 CNS
SNB-75 CNS = system: SNB-75 CNS
SR leukemia = system: SR leukemia
SW-620 colon = system: SW-620 colon
TK-10 renal = system: TK-10 renal
U251 glioblastoma = system: U251 glioblastoma
UO-31 renal = system: UO-31 renal

O=C(Nc1ccncc1)C(=O)c1cn(Cc2ccc(Cl)cc2)c2ccccc12
GI50 ([…]-0 renal): < 10 nM
TGI (786-0 renal): 2010 nM
GI50 (A498 renal): 30.5 nM
TGI (A498 renal): > 100000 nM
GI50 (A549 NSCLC): 1090 nM
TGI (A549 NSCLC): > 100000 nM
GI50 (ACHN renal): < 10 nM
TGI (ACHN renal): > 100000 nM
GI50 (BT-549 breast): < 10 nM
TGI (BT-549 breast): > 100000 nM
GI50 (CAKI-1 renal): < 10 nM
TGI (CAKI-1 renal): > 100000 nM
GI50 (CCRF-CEM leukemia): < 10 nM
TGI (CCRF-CEM leukemia): 16.5 nM
GI50 (COLO 205 colon): 126 nM
TGI (COLO 205 colon): 353 nM
GI50 (DU-145 prostate): 20.8 nM
TGI (DU-145 prostate): > 100000 nM
GI50 (EKVX NSCLC): < 10 nM
TGI (EKVX NSCLC): > 100000 nM
GI50 (HCC-2998 colon): < 10 nM
TGI (HCC-2998 colon): 377 nM
GI50 (HCT-116 colon): < 10 nM
TGI (HCT-116 colon): > 100000 nM
GI50 (HCT-15 colon): < 10 nM
TGI (HCT-15 colon): > 100000 nM
GI50 (HL-60(TB) leukemia): < 10 nM
TGI (HL-60(TB) leukemia): < 10 nM
GI50 (HOP-62 NSCLC): < 10 nM
TGI (HOP-62 NSCLC): 24100 nM
GI50 (HOP-92 NSCLC): 10.4 nM
TGI (HOP-92 NSCLC): 34300 nM
GI50 (HS 578T breast): < 10 nM
TGI (HS 578T breast): < 10 nM
GI50 (HT29 colon): < 10 nM
TGI (HT29 colon): > 100000 nM
GI50 (IGROV1 ovarian): < 10 nM
TGI (IGROV1 ovarian): > 100000 nM
GI50 (K-562 leukemia): < 10 nM
TGI (K-562 leukemia): 11.9 nM
GI50 (KM12 colon): < 10 nM
TGI (KM12 colon): > 100000 nM
GI50 (LOX IMVI melanoma): < 10 nM
TGI (LOX IMVI melanoma): > 100000 nM
GI50 (M14 melanoma): < 10 nM
TGI (M14 melanoma): 36.8 nM
GI50 (MALME-3M melanoma): < 10 nM
TGI (MALME-3M melanoma): 23400 nM
GI50 (MCF7 breast): < 10 nM
TGI (MCF7 breast): > 100000 nM
GI50 (MDA-MB-231 breast): 46.8 nM
TGI (MDA-MB-231 breast): > 100000 nM
GI50 (MDA-MB-435 melanoma): < 10 nM
TGI (MDA-MB-435 melanoma): < 10 nM
GI50 (MDA-MB-468 breast): < 10 nM
TGI (MDA-MB-468 breast): 20.8 nM
GI50 (MOLT-4 leukemia): < 10 nM
TGI (MOLT-4 leukemia): < 10 nM
GI50 (NCI-H226 lung): < 10 nM
TGI (NCI-H226 lung): 787 nM
GI50 (NCI-H23 lung): < 10 nM
TGI (NCI-H23 lung): 67.4 nM
GI50 (NCI-H322M lung): 44.8 nM
TGI (NCI-H322M lung): > 100000 nM
GI50 (NCI-H460 NSCLC): < 10 nM
TGI (NCI-H460 NSCLC): 52.7 nM
GI50 (NCI-H522 lung): < 10 nM
TGI (NCI-H522 lung): < 10 nM
GI50 (NCI/ADR-RES ovarian): < 10 nM
TGI (NCI/ADR-RES ovarian): < 10 nM
GI50 (OVCAR-3 ovarian): < 10 nM
TGI (OVCAR-3 ovarian): < 10 nM
GI50 (OVCAR-4 ovarian): 23 nM
TGI (OVCAR-4 ovarian): > 100000 nM
GI50 (OVCAR-5 ovarian): 894 nM
TGI (OVCAR-5 ovarian): > 100000 nM
GI50 (OVCAR-8 ovarian): < 10 nM
TGI (OVCAR-8 ovarian): 14100 nM
GI50 (PC-3 prostate): < 10 nM
TGI (PC-3 prostate): > 100000 nM
GI50 (RPMI-8226 leukemia): < 10 nM
TGI (RPMI-8226 leukemia): < 10 nM
GI50 (RXF 393 renal): < 10 nM
TGI (RXF 393 renal): < 10 nM
GI50 (SF-268 CNS): < 10 nM
TGI (SF-268 CNS): > 100000 nM
GI50 (SF-295 CNS): < 10 nM
TGI (SF-295 CNS): < 10 nM
GI50 (SF-539 CNS): < 10 nM
TGI (SF-539 CNS): 24.7 nM
GI50 (SK-MEL-5 melanoma): < 10 nM
TGI (SK-MEL-5 melanoma): 11.6 nM
GI50 (SK-OV-3 ovarian): 25 nM
TGI (SK-OV-3 ovarian): > 100000 nM
GI50 (SN12C renal): 17.3 nM
TGI (SN12C renal): > 100000 nM
GI50 (SNB-19 CNS): 13.8 nM
TGI (SNB-19 CNS): > 100000 nM
GI50 (SNB-75 CNS): < 10 nM
TGI (SNB-75 CNS): 3230 nM
GI50 (SR leukemia): < 10 nM
TGI (SR leukemia): < 10 nM
GI50 (SW-620 colon): < 10 nM
TGI (SW-620 colon): > 100000 nM
GI50 (TK-10 renal): < 10 nM
TGI (TK-10 renal): 72200 nM
GI50 (U251 glioblastoma): < 10 nM
TGI (U251 glioblastoma): 1950 nM
GI50 (UO-31 renal): < 10 nM
TGI (UO-31 renal): > 100000 nM
